# Experimental data from patent US7563913B2, “Compound and pharmaceutical composition” (Hiro International Co., Ltd., priority 2003, dated 2009).
# Assays:
# [1] = system: human acute myeloid leukemia cell strain HL-60; experiment: Cytotoxic activity, MTT test on HL-60 cells; assay type: cell-based; conditions: 72 hr incubation; for IC50: Homo sapiens
# Protocol: Cytostatic activity of TD-1 to 10 was studied in terms of numerical values of cytotoxic activity using human acute myeloid leukemia cell strain HL-60. The test was specifically carried out according to the following procedure.
# HL-60 cells precultured in an FBS-containing RPMI 1640 medium were suspended in an FBS-containing RPMI 1640 medium so that the number of HL-60 cells is 4×10^4 per mL. The suspension was dispensed in an amount of […] for each well in a 96-well microplate, followed by preincubation in 5% carbon dioxide gas at 37° C. for 24 hr. Subsequently, EtOH-H2O(1:1) as control, and a solution of each TD compound in EtOH-H2O(1:1) as a sample were added each in an amount of […] to each well. After incubation in 5% carbon dioxide gas at 37° C. for 72 hr, an MTT reagent was added in an amount of […] to each well, and incubation was further carried out for 4 hr. The medium was removed, and MTT formazan thus produced was then dissolved in […] of DMSO. Detection was carried out at a light absorption wavelength of 550 nm with a microplate reader, and the viable cell count based on the control was calculated. IC50 values were calculated from a dose-response curve.
# P388 mouse leukemia = conditions: mice with P388 mouse leukemia intraperitoneally transplanted; Pal et al. 1976; cited from earlier work
# [2] = system: DU-145 prostatic cancer cell line; experiment: Human cultured cancer cell panel screening test, DU-145; assay type: cell-based
# Protocol: (§1) To examine the cytostatic activity of TD-1, a human cultured cancer cell panel screening test was carried out. Specifically, for TD-1, the human cultured cancer cell panel screening test was carried out by measuring 50% cell growth inhibitory concentration (GI50) against 39 types in total of human tumor cells according to the method described in “Gan To Kagaku Ryoho (Cancer and Chemotherapy) (Takao Yamori), 24, 129-135, 1997”.
# [3] = system: SK-OV-3 ovarian cancer cell line; experiment: Human cultured cancer cell panel screening test, SK-OV-3; assay type: cell-based
# Protocol: as §1
# [4] = system: PC-3 prostatic cancer cell line; experiment: Human cultured cancer cell panel screening test, PC-3; assay type: cell-based
# Protocol: as §1
# [5] = system: OVCAR-8 ovarian cancer cell line; experiment: Human cultured cancer cell panel screening test, OVCAR-8; assay type: cell-based
# Protocol: as §1
# [6] = system: OVCAR-5 ovarian cancer cell line; experiment: Human cultured cancer cell panel screening test, OVCAR-5; assay type: cell-based
# Protocol: as §1
# [7] = system: OVCAR-4 ovarian cancer cell line; experiment: Human cultured cancer cell panel screening test, OVCAR-4; assay type: cell-based
# Protocol: as §1
# [8] = system: 39 types in total of human tumor cells; experiment: Human cultured cancer cell panel screening test, average over panel; assay type: cell-based; conditions: 50% cell growth inhibitory concentration, average over 39 human tumor cell types
# Protocol: as §1
# [9] = system: OVCAR-3 ovarian cancer cell line; experiment: Human cultured cancer cell panel screening test, OVCAR-3; assay type: cell-based
# Protocol: as §1
smiles,measurement,setting,value
"C=C1C(=O)O[C@@H]2C[C@H](C)[C@@]3(O)C[C@H](O)[C@@](C)(C[C@@H](OC(=O)C(C)C)[C@@H]12)O3 [TD-7, (1S,3R,4S,6R,7S,8R,10R)-1,3-dihydroxy-3,10-epoxy-8-isobutyryloxygermacra-11(13)-en-6,12-olide]",IC50 value,[1],(3.87) μg/mL
"C=C1C(=O)O[C@@H]2C[C@H](C)[C@@]3(OC)C[C@H](O)[C@@](C)(C[C@@H](OC(=O)C(C)C)[C@@H]12)O3 [TD-3, (1S,3R,4S,6R,7S,8R,10R)-1-hydroxy-3-methoxy-3,10-epoxy-8-isobutyryloxygermacra-11(13)-en-6,12-olide]",IC50 value,[1],(4.97) μg/mL
"C=C1C(=O)O[C@@H]2C=C(C)[C@@]3(OC)C[C@H](O)[C@@](C)(C[C@@H](OC(=O)C(C)C)[C@@H]12)O3 [TD-6, (1 S,3R,6R,7R, 8R,10R)-1-hydroxy-3-methoxy-3,10-epoxy-8-isobutyryloxygermacra-4,11(13)-dien-6,12-olide]",IC50 value,[1],(2.50) μg/mL
"C=C1C(=O)O[C@H]2/C=C(/C)[C@@]3(O)C=C[C@@](C)(C[C@@H](OC(=O)C(C)C)[C@@H]12)O3 [TD-11, (3R,6R,7R,8R,10R)-3-hydroxy-3,10-epoxy-8-isobutyryloxygermacra-1,4,11(13)-trien-6,12-olide]",effect of prolonging the life span of mice,P388 mouse leukemia,had the effect of prolonging the life span of mice
"C=C1C(=O)O[C@@H]2C=C(C)[C@@]3(O)C[C@@H](OC)[C@@](C)(C[C@@H](OC(=O)C(C)C)[C@@H]12)O3 [TD-4, (1R,3R,6R,7R,8R,10R)-3-hydroxy-1-methoxy-3,10-epoxy-8-isobutyryloxygermacra-4,11(13)-dien-6,12-olide]",IC50 value,[1],(0.05) μg/mL
"C=C1C(=O)OC2/C=C(/C)C(O)CC3OC3(C)CC(OC(=O)C(C)C)C12 [TD-8, (1R,3S,6S,7R,8R,10R)-3-hydroxy-1,10-epoxy-8-isobutyrylgermacra-4,11(13)-dien-6,12-olide]",IC50,[1],0.92 µg/mL
"C=C1C(=O)O[C@@H]2C[C@H](C)[C@@]3(O)CC[C@@](C)(C[C@@H](OC(=O)C(C)C)[C@@H]12)O3 [TD-9, (3R,4S,6R,7S,8R,10S)-3-hydroxy-3,10-epoxy-8-isobutyryloxygermacra-11 (13)-en-6,12-olide]",IC50 value,[1],(2.50) μg/mL
"C=C1C(=O)OC2/C=C(/C)C(=O)/C=C/C(C)(O)CC(OC(=O)C(C)C)C12 [TD-2, (6S,7R,8R,10R)-10-hydroxy-3-oxo-8-isobutyryloxygermacra-1,4,11(13)-trien-6,12-olide]",IC50,[1],0.38 µg/mL
"C=C1C(=O)O[C@@H]2C=C(C)[C@@]3(OC)C[C@@H](OC)[C@@](C)(C[C@@H](OC(=O)C(C)C)[C@@H]12)O3 [TD-1, (1R,3R,6R,7R,8R,10R)-1,3-dimethoxy-3,10-epoxy-8-isobutyryloxygermacra-4,11(13)-dien-6,12-olide]",GI50,[2],4.2 µM
same,GI50,[3],4 µM
same,GI50,[4],3.3 µM
same,GI50,[5],3.6 µM
same,GI50,[6],2.9 µM
same,GI50,[7],5.6 µM
same,GI50,[8],6.8 µM
same,IC50 value,[1],(0.60) μg/mL
same,GI50,[9],3.3 µM
"C=C1C(=O)O[C@@H]2C[C@H](C)[C@@]3(OC)CC[C@@](C)(C[C@@H](OC(=O)C(C)C)[C@@H]12)O3 [TD-10, (3R,4S,6R,7S,8R,10S)-3-methoxy-3,10-epoxy-8-isobutyryloxygermacra-11(13)-en-6,12-olide]",IC50 value,[1],(0.78) μg/mL
